Measured values reported in US20200315923A1, “DESINFECTANT BONE AND DENTAL FILLER MATERIALS COMPRISING LIPOSOMES” (Cementic, priority 2017, published 2020).

Tests used:
Gram+ bacteria = conditions: cited from earlier work
Gram-bacteria = conditions: cited from earlier work
Enterococcus faecalis = assay: Agarose gel diffusion test; type: cell-based; conditions: agar diffusion, this experiment
Method: An adaptation of the agarose gel diffusion test was tested and validated for dental cements. The analysis was performed using the plaque assay. In the case of a test on samples of various concentrations, the ICM can be estimated using a software available on an on-line platform developed by Bonev in 2008 (http://agardiffusion.com) (Principles of assessing bacterial susceptibility to antibiotics using the agar diffusion method J. Antimic. Chemoth., 61 12951301).
For this experiment, liposomes and disinfecting fillers were produced as described in 8.1 and 7.6 a.
3 mm circular wells were punched using a disposable biopsy needle into Mueller-Hinton agar. The agar was then homogeneously inoculated with 100 μL of a solution of Enterococcus faecalis adjusted to a concentration of 0.5 MacFarland. Bio Root™ cement was then prepared (500 mg powder+250 μL liquid+/−35 μL CEM CHX 0918-001). The wells were then filled with cement using a pipetman for viscous solutions. The agar plates were then incubated at 37° C. under aerobic conditions for 24 hours. The area of growth inhibition was then measured using a ruler (FIG. 26).
To measure the effect of the prolonged release of antimicrobial agent, agar plates were prepared as above but without being inoculated with E. faecalis. […] The plates were then incubated for 24 hours and the lysis areas measured with a ruler.

Row | calculated MIC (Enterococcus faecalis) [mg/L] | SMILES | MIC (concentration corresponding to the elimination of 90% of the bacteria) (Gram+ bacteria) [mg/L] | MIC (concentration corresponding to the elimination of 90% of the bacteria) (Gram-bacteria) [mg/L]
1 | – | [H]/N=C(\N/C(=N/[H])NCCCCCCNC(=N)NC(=N)Nc1ccc(Cl)cc1)Nc1ccc(Cl)cc1 [chlorhexidine] | 22 | 40
2 | 15.5 | N=C(NCCCCCCNC(=N)NC(=N)Nc1ccc(Cl)cc1)NC(=N)Nc1ccc(Cl)cc1.O=C(O)[C@H](O)[C@@H](O)[C@H](O)[C@H](O)CO.O=C(O)[C@H](O)[C@@H](O)[C@H](O)[C@H](O)CO [chlorhexidine digluconate] | – | –
